Where a name gives a salt, the structure may show the parent alone.
Legend:
IDO in A431 cells = target: T1, IDO in A431 cells (Homo sapiens, UniProt P14902); experiment: IDO cell-based assay, kynurenine production in IFN-γ stimulated A431 cells; conditions: A-431, 24 h; final concentration of the compound 10 μM; rate relative to culture without compound
T1 construct: endogenous in cells; host or cells: A431 cells, IFN-γ stimulated
Method in brief: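 A431 cells were cultured 24 h, then preincubated 1 h with compound in medium containing 178 μM L-tryptophan, and stimulated with IFN-γ (diluted to 100 ng/mL before addition) for 24 h. Kynurenine was measured by p-dimethylbenzaldehyde absorbance at 460 nm, background-subtracted, and expressed as % production versus no-compound control.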

TDO in A172 cells = target: T2, TDO in A172 cells (Homo sapiens, UniProt P48775); experiment: TDO cell-based assay, kynurenine production in A172 cells; conditions: A 172; final concentration of the compound 10 μM; rate relative to culture without compound
T2 construct: endogenous in cells; host or cells: A172 cells
Method in brief: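 A172 cells were preincubated with compound for 1 h, then given L-tryptophan (final 524 μM) for 24 h at 37 °C. Kynurenine was read at 460 nm after p-dimethylbenzaldehyde/TCA reagent, background-subtracted, and expressed as % of no-compound production.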

[1] = target: rhIDO (recombinant human IDO) (Homo sapiens, UniProt P14902); experiment: Enzyme assay using rhIDO (rate of kynurenine production); type: biochemical; conditions: 2 h, read-out: rhIDO-mediated kynurenine production; for remaining activity at 10 µM: final concentration of the compound 10 μM, rate relative to reaction without compound
Method in brief: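 rhIDO preincubated with compound 10 min at 37 °C in phosphate buffer with ascorbate, methylene blue and catalase; started with 2 mM tryptophan solution (stock) and run 120 min at 37 °C. Stopped with TCA and heated to convert N-formylkynurenine; kynurenine read at 490 nm after p-dimethylbenzaldehyde, background-subtracted, as % of no-compound control.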

[2] = target: rhTDO (recombinant human TDO) (Homo sapiens, UniProt P48775); experiment: Enzyme assay using rhTDO (rate of kynurenine production); type: biochemical; conditions: 2 h; final concentration of the compound 10 μM; rate relative to reaction without compound; read-out: rhTDO-mediated kynurenine production
Method in brief: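 Kynurenine output, as percent of untreated control after background subtraction, read at 490 nm with p-dimethylbenzaldehyde following TCA quench and 15 min heating at 50 °C. Reaction: rhTDO with compound, 10 min preincubation then 120 min at 37 °C, started by 20 mM tryptophan stock, in phosphate/ascorbate/methylene blue/catalase.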

Chain of rhIDO (recombinant human IDO) (P14902 whole entry): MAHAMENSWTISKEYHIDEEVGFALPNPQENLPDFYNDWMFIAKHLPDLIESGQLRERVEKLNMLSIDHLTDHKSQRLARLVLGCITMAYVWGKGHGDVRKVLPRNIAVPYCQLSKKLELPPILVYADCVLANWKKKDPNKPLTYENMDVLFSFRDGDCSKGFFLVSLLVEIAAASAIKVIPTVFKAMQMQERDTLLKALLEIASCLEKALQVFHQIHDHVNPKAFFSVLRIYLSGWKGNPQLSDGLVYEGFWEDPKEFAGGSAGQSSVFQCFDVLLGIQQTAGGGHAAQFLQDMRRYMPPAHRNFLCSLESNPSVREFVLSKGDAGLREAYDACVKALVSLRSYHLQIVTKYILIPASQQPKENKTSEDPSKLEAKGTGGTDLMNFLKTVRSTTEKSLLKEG
T1 sequence (P14902 whole entry): as above
Chain of rhTDO (recombinant human TDO) (P48775 whole entry): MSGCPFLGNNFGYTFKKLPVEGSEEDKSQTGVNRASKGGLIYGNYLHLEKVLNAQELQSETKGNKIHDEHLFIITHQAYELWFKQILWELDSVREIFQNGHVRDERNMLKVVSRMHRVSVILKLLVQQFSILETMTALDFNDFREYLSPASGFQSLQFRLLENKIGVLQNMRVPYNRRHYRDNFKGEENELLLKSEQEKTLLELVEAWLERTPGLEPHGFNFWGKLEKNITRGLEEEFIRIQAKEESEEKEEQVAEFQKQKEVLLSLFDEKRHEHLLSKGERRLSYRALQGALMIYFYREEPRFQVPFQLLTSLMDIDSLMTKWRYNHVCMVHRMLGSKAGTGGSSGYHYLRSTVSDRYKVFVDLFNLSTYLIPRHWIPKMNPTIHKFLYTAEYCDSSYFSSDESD
T2 sequence (P48775 whole entry): as above

Row | Structure (SMILES) | remaining activity at 10 µM (IDO in A431 cells) [%] | remaining activity at 10 µM (TDO in A172 cells) [%] | remaining activity at 3 µM ([1]; final concentration of the compound 3 μM (data with *)) [%] | remaining activity at 10 µM [2] [%] | remaining activity at 10 µM [1] [%]
1 | Clc1cc(CSC2=NCN(CC3CC3)CN2)c(CSC2=NCN(CC3CC3)CN2)cc1Cl [Compound 73, 6,6′-(((4,5-Dichloro-1,2-phenylene)bis(methylene))bis(sulfanediyl))bis(3-(cyclopropylmethyl)-1,2,3,4-tetrahydro-1,3,5-triazine)] | 4 | -3 | 29 | 4 | –
2 | N=C(N)SCc1cc(Br)ccc1C(=O)NCC1CCCCC1 [Compound 74, 5-Bromo-2-((cyclohexylmethyl)carbamoyl)benzyl carbamimidothioate hydrobromide] | 75 | 47 | – | 29 | 70
3 | Brc1ccc(CSC2=NCN(CC3CC3)CN2)c(CSC2=NCN(CC3CC3)CN2)c1 [Compound 75, 6,6′-(((4-Bromo-1,2-phenylene)bis(methylene))bis(sulfanediyl))bis(3-(cyclopropylmethyl)-1,2,3,4-tetrahydro-1,3,5-triazine)] | 9 | 3 | – | 15 | 35
4 | CNC(=O)c1ccc(C#N)cc1CSC(=N)N [Compound 77, 5-Cyano-2-(methylcarbamoyl)benzyl carbamimidothioate hydrobromide] | 103 | 89 | – | 101 | 74
5 | N=C(N)SCc1cc(Br)ccc1C(=O)NCCc1ccc(Cl)cc1 [Compound 78, 5-Bromo-2-((4-chlorophenethyl)carbamoyl)benzyl carbamimidothioate hydrobromide] | 112 | 56 | – | 25 | 74
6 | CNC(=O)Cc1ccccc1CS/C(N)=N/c1ccc(Br)cc1 [Compound 79, 2-(2-(Methylamino)-2-oxoethyl)benzyl (E)-N′-(4-bromophenyl)carbamimidothioate hydrobromide] | 60 | 38 | – | 34 | 90
7 | CNC(=O)Cc1ccccc1CS/C(N)=N/c1ccc(F)c(Cl)c1 [Compound 80, 2-(2-(Methylamino)-2-oxoethyl)benzyl (E)-N′-(3-chloro-4-fluorophenyl)carbamimidothioate hydrobromide] | 66 | 45 | – | 38 | 97
8 | CNC(=O)c1ccc(C#N)cc1CS/C(N)=N/c1ccc(Br)cc1 [Compound 81, 5-Cyano-2-(methylcarbamoyl)benzyl (E)-N′-(4-bromophenyl)carbamimidothioate hydrobromide] | 78 | 89 | – | 121 | 81
9 | N=C(N)SCc1cc(Br)ccc1C(=O)NCc1ccc(Cl)cc1 [Compound 82, 5-Bromo-2-((4-chlorobenzyl)carbamoyl)benzyl carbamimidothioate hydrobromide] | 99 | 37 | – | 27 | 89
10 | N/C(=N\c1ccc(F)c(Cl)c1)SCc1cc(Br)ccc1C(=O)NCc1ccc(Cl)cc1 [Compound 83, 5-Bromo-2-((4-chlorobenzyl)carbamoyl)benzyl (E)-N′-(3-chloro-4-fluorophenyl)carbamimidothioate hydrobromide] | 75 | 21 | – | 59 | 80
11 | N/C(=N\c1ccc(Br)cc1)SCc1cc(Br)ccc1C(=O)NCc1ccc(Cl)cc1 [Compound 84, 5-Bromo-2-((4-chlorobenzyl)carbamoyl)benzyl (E)-N′-(4-bromophenyl)carbamimidothioate hydrobromide] | 56 | 18 | – | 65 | 84
12 | N#Cc1ccc(CNC(=O)c2ccc(Br)cc2CS/C(N)=N/c2ccc(F)c(Cl)c2)cc1 [Compound 85, 5-Bromo-2-((4-cyanobenzyl)carbamoyl)benzyl (E)-N′-(3-chloro-4-fluorophenyl)carbamimidothioate hydrobromide] | 56 | 16 | – | 50 | 71
13 | N=C(N)SCc1cc(Br)ccc1C(=O)NCc1ccc(F)cc1 [Compound 86, 5-Bromo-2-((4-fluorobenzyl)carbamoyl)benzyl carbamimidothioate hydrobromide] | 109 | 36 | – | 46 | 92
14 | N#Cc1ccc(CNC(=O)c2ccc(Br)cc2CS/C(N)=N/c2ccc(Br)cc2)cc1 [Compound 87, 5-Bromo-2-((4-cyanobenzyl)carbamoyl)benzyl (E)-N′-(4-bromophenyl)carbamimidothioate hydrobromide] | 67 | 13 | – | 51 | 75
15 | N/C(=N\c1ccc(F)c(Cl)c1)SCc1cc(Br)ccc1C(=O)NCc1ccc(F)cc1 [Compound 88, 5-Bromo-2-((4-fluorobenzyl)carbamoyl)benzyl (E)-N′-(3-chloro-4-fluorophenyl)carbamimidothioate hydrobromide] | 64 | 28 | – | 92 | 82
16 | N=C(N)SCc1cc(Br)ccc1C(=O)NCc1ccc(Cl)cc1Cl [Compound 89, 5-Bromo-2-((2,4-dichlorobenzyl)carbamoyl)benzyl carbamimidothioate hydrobromide] | 122 | 51 | – | 12 | 81
17 | Cc1ccc(CNC(=O)c2ccc(Br)cc2CSC(=N)N)cc1 [Compound 90, 5-Bromo-2-((4-methylbenzyl)carbamoyl)benzyl carbamimidothioate hydrobromide] | 96 | 51 | – | 45 | 90
18 | Cc1ccc(CNC(=O)c2ccc(Br)cc2CS/C(N)=N/c2ccc(F)c(Cl)c2)cc1 [Compound 91, 5-Bromo-2-((4-methylbenzyl)carbamoyl)benzyl (E)-N′-(3-chloro-4-fluorophenyl)carbamimidothioate hydrobromide] | 51 | 26 | – | 103 | 78
19 | CNC(=O)c1ccccc1CSC(=N)N [Compound 92, 2-(Methylcarbamoyl)benzyl carbamimidothioate hydrobromide] | 112 | 81 | – | 68 | 90
20 | N=C(N)SCc1cc(Br)ccc1C(=O)NCC1CC1 [Compound 93, 5-Bromo-2-((cyclopropylmethyl)carbamoyl)benzyl carbamimidothioate hydrobromide] | 124 | 49 | – | 53 | 103
21 | N=C(N)SCc1cc(Br)ccc1C(=O)NCc1ccc(Cl)c(Cl)c1 [Compound 94, 5-Bromo-2-((3,4-dichlorobenzyl)carbamoyl)benzyl carbamimidothioate hydrobromide] | 158 | 59 | – | 15 | 80
22 | N#Cc1ccc(CNC(=O)c2ccccc2CSC(=N)N)cc1 [Compound 96, 2-((4-Cyanobenzyl)carbamoyl)benzyl carbamimidothioate hydrobromide] | 93 | 38 | – | 26 | 71
23 | N=C(N)SCc1cc(Br)ccc1C(=O)NCc1ccc(Br)cc1 [Compound 97, 5-Bromo-2-((4-bromobenzyl)carbamoyl)benzyl carbamimidothioate hydrobromide] | 83 | 37 | – | 16 | 85
24 | CNC(=O)c1ncccc1CSC(=N)N [Compound 98, (2-(Methylcarbamoyl)pyridin-3-yl)methyl carbamimidothioate hydrobromide] | 107 | 133 | – | 91 | 95
